Test [1] addresses IRAK4 (Homo sapiens (Human), UniProt Q9NWZ3). Kind of test: IRAK4 Inhibition Assay. The test is classed as biochemical. The settings on record: IRAK4 Inhibition Assay; ATP 500 μM; read-out: IRAK4 IC50. In outline:
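IRAK4 combined with fluorescent substrate and compounds, reacted 60 min at room temperature, stopped with 35 mM EDTA. Substrate and phosphorylated product separated electrophoretically on a Caliper LabChip 3000 mobility-shift reader.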

In test [2] the test system is TLR2 induced IL-6 in peripheral blood mononuclear cells (PBMCs). Nature of the test: PBMC TLR2 Induced IL-6 Assay. The test is classed as cell-based, human. The settings on record: Homo sapiens, PBMC, PBMC TLR2 Induced IL-6 Assay; lipoteichoic acid stimulation, IL-6 by ELISA; read-out: Cell EC50. The procedure, abridged: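 Lipoteichoic acid at 10 µg/ml served as TLR2 stimulus for 5 hours, following a 30-minute compound pretreatment at 37° C. Cells were Ficoll-isolated human PBMCs, 250000 cells/well, cultured in RPMI plus 10% heat-inactivated FCS.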
A general note: In an ELISA, binding on a coated surface is turned into a signal by an enzyme label.

Structures are written as SMILES.

Sequence of IRAK4 (Q9NWZ3 whole entry, species assumed): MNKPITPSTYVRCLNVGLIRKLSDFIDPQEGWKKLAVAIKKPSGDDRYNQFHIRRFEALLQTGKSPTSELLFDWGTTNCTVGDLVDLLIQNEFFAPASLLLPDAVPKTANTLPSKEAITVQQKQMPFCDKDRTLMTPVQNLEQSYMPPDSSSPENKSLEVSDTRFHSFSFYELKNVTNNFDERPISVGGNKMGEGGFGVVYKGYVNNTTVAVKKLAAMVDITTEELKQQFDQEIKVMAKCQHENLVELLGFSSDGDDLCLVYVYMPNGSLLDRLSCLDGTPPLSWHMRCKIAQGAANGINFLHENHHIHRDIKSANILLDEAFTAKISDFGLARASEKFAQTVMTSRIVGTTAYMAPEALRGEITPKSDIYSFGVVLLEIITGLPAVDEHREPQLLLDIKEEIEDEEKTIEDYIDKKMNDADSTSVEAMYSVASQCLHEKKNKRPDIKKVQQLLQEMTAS

For the compound `CC(C)(O)[C@H](F)CNC(=O)c1cnc(-n2ccc3cc(C#N)cnc32)cc1Nc1cccc(O)c1` [Example 46, (R)-6-(5-cyano-1H-pyrrolo[2,3-b]pyridin-1-yl)-N-(2-fluoro-3-hydroxy-3-methylbutyl)-4-((3-hydroxyphenyl)amino)nicotinamide], in test [1], the IC50 worked out at 2.2 nM. Besides, the EC50 in test [2] is 23 nM.

For the compound `CC(C)Nc1cc(-n2ccc3cc(C#N)cnc32)ncc1C(=O)NCCCOC(C)C` [Example 47, 6-(5-cyano-1H-pyrrolo[2,3-b]pyridin-1-yl)-N-(3-isopropoxypropyl)-4-(isopropylamino) nicotinamide], in test [1], the IC50 came to 5.6 nM. For the same compound, the EC50 in test [2] was determined as 173 nM.

With `CC(C)(O)[C@H](F)CNC(=O)c1cnc(-n2ccc3cc(C#N)cnc32)cc1Nc1cccc(S(N)(=O)=O)c1` [Example 50, (R)-6-(5-cyano-1H-pyrrolo[2,3-b]pyridin-1-yl)-N-(2-fluoro-3-hydroxy-3-methylbutyl)-4-((3-sulfamoylphenyl)amino)nicotinamide], the half-inhibitory concentration (IC50) in test [1] is 1.9 nM. The EC50 in test [2] was 58 nM.

For `CC(C)(O)[C@H](F)CNC(=O)c1cnc(-n2ccc3cc(C#N)cnc32)cc1NC[C@@H](F)C(C)(C)O` [Example 52, 6-(5-cyano-1H-pyrrolo[2,3-b]pyridin-1-yl)-N—((R)-2-fluoro-3-hydroxy-3-methylbutyl)-4-(((R)-2-fluoro-3-hydroxy-3-methylbutyl)amino)nicotinamide], the IC50 in test [1] was 2.4 nM. The EC50 in test [2] is 66 nM.

Take `CC(C)(O)[C@H](F)CNC(=O)c1cnc(-n2ccc3cc(C#N)cnc32)cc1NC1CC(F)(F)C1` [Example 53, (R)-6-(5-cyano-1H-pyrrolo[2,3-b]pyridin-1-yl)-4-((3,3-difluorocyclobutyl)amino)-N-(2-fluoro-3-hydroxy-3-methylbutyl)nicotinamide]: the IC50 in test [1] is 1.9 nM. In addition, the EC50 in test [2] came out at 271 nM.

As to `CC(=O)Nc1cccc(Nc2cc(-n3ccc4cc(C#N)cnc43)ncc2C(=O)NC[C@@H](F)C(C)(C)O)c1` [Example 54, (R)-4-((3-acetamidophenyl)amino)-6-(5-cyano-1H-pyrrolo[2,3-b]pyridin-1-yl)-N-(2-fluoro-3-hydroxy-3-methylbutyl) nicotinamide], the IC50 in test [1] stood at 1.8 nM. Also, the EC50 in test [2] stood at 254 nM.

Regarding `CNC(=O)c1cccc(Nc2cc(-n3ccc4cc(C#N)cnc43)ncc2C(=O)NC[C@@H](F)C(C)(C)O)c1` [Example 55, (R)-6-(5-cyano-1H-pyrrolo[2,3-b]pyridin-1-yl)-N-(2-fluoro-3-hydroxy-3-methylbutyl)-4-((3-(methylcarbamoyl)phenyl)amino)nicotinamide], the IC50 in test [1] turned out to be 3.6 nM. Moreover, the EC50 in test [2] stood at 513 nM.

As to `CC(C)(O)[C@H](F)CNC(=O)c1cnc(-n2ccc3cc(C#N)cnc32)cc1Nc1cccc(C(N)=O)c1` [Example 56, (R)-4-((3-carbamoylphenyl)amino)-6-(5-cyano-1H-pyrrolo[2,3-b]pyridin-1-yl)-N-(2-fluoro-3-hydroxy-3-methylbutyl)nicotinamide], the IC50 in test [1] was 2.5 nM. For the same compound, the EC50 in test [2] is 102 nM.

As to `CC(C)(O)[C@H](F)CNC(=O)c1cnc(-n2ccc3cc(C#N)cnc32)cc1Nc1cccc(NS(C)(=O)=O)c1` [Example 57, (R)-6-(5-cyano-1H-pyrrolo[2,3-b]pyridin-1-yl)-N-(2-fluoro-3-hydroxy-3-methylbutyl)-4-((3-(methylsulfonamido)phenyl)amino) nicotinamide], the IC50 in test [1] stood at 1.5 nM. Moreover, the EC50 in test [2] turned out to be 173 nM.

As for `CC(C)Nc1cc(-n2ccc3cc(C#N)cnc32)ncc1C(=O)NCCc1ccc(S(N)(=O)=O)cc1` [Example 58, 6-(5-cyano-1H-pyrrolo[2,3-b]pyridin-1-yl)-4-(isopropylamino)-N-(4-sulfamoylphenethyl)nicotinamide], in test [1], the IC50 was 2.7 nM. The EC50 in test [2] was 49 nM.

Take `CC(C)(O)c1cccc(Nc2cc(-n3ccc4cc(C#N)cnc43)ncc2C(=O)NC[C@@H](F)C(C)(C)O)c1` [Example 59, (R)-6-(5-cyano-1H-pyrrolo[2,3-b]pyridin-1-yl)-N-(2-fluoro-3-hydroxy-3-methylbutyl)-4-((3-(2-hydroxypropan-2-yl)phenyl)amino) nicotinamide]: in test [1], the IC50 stood at 1.6 nM. The EC50 in test [2] came out at 153 nM.

With `CC(C)(O)[C@H](F)CNC(=O)c1cnc(-n2ccc3cc(C#N)cnc32)cc1Nc1ccc(C(N)=O)cc1` [Example 60, (R)-4-((4-carbamoylphenyl)amino)-6-(5-cyano-1H-pyrrolo[2,3-b]pyridin-1-yl)-N-(2-fluoro-3-hydroxy-3-methylbutyl)nicotinamide], in test [1], the half-inhibitory concentration (IC50) is 1.8 nM. Moreover, the EC50 in test [2] came to 24 nM.

Consider `CC(C)(O)[C@H](F)CNC(=O)c1cnc(-n2ccc3cc(C#N)cnc32)cc1N[C@H]1CC[C@@](C)(O)CC1` [Example 61, 6-(5-cyano-1H-pyrrolo[2,3-b]pyridin-1-yl)-N—((R)-2-fluoro-3-hydroxy-3-methylbutyl)-4-(((1s,4S)-4-hydroxy-4-methylcyclohexyl)amino)nicotinamide], for which the IC50 in test [1] came out at 1.3 nM. For the same compound, in test [2], the EC50 was determined as 34 nM.

For the compound `CC(C)(O)[C@H](F)CNC(=O)c1cnc(-n2ccc3cc(C#N)cnc32)cc1N[C@H]1CC[C@](C)(O)CC1` [Example 62, 6-(5-cyano-1H-pyrrolo[2,3-b]pyridin-1-yl)-N—((R)-2-fluoro-3-hydroxy-3-methylbutyl)-4-(((trans)-4-hydroxy-4-methylcyclohexyl)amino)nicotinamide], the IC50 in test [1] came to 3.6 nM. The EC50 in test [2] amounted to 143 nM.

As to `CC(C)Nc1cc(-n2ccc3cc(C#N)cnc32)ncc1C(=O)NCCNS(C)(=O)=O` [Example 63, 6-(5-cyano-1H-pyrrolo[2,3-b]pyridin-1-yl)-4-(isopropylamino)-N-(2-(methylsulfonamido)ethyl)nicotinamide], the IC50 in test [1] was 4.1 nM. In addition, in test [2], the EC50 stood at 12 nM.

Take `CC(C)(O)[C@H](F)CNC(=O)c1cnc(-n2ccc3cc(C#N)cnc32)cc1Nc1ccc2ncsc2c1` [Example 64, (R)-4-(benzo[d]thiazol-6-ylamino)-6-(5-cyano-1H-pyrrolo[2,3-b]pyridin-1-yl)-N-(2-fluoro-3-hydroxy-3-methylbutyl)nicotinamide]: the IC50 in test [1] was 1.7 nM. The EC50 in test [2] was found to be 93 nM.

As for `CC(C)(O)[C@H](F)CNC(=O)c1cnc(-n2ccc3cc(C#N)cnc32)cc1NCC1(F)CCC1` [Example 65, (R)-6-(5-cyano-1H-pyrrolo[2,3-b]pyridin-1-yl)-N-(2-fluoro-3-hydroxy-3-methylbutyl)-4-(((1-fluorocyclobutyl)methyl)amino) nicotinamide], the IC50 in test [1] stood at 1.5 nM. In addition, in test [2], the EC50 was 100 nM.

Take `CC(C)(O)[C@H](F)CNC(=O)c1cnc(-n2ccc3cc(C#N)cnc32)cc1Nc1cccc(C#N)c1` [Example 66, (R)-6-(5-cyano-1H-pyrrolo[2,3-b]pyridin-1-yl)-4-((3-cyanophenyl)amino)-N-(2-fluoro-3-hydroxy-3-methylbutyl)nicotinamide]: the IC50 in test [1] is 1.7 nM. The EC50 in test [2] stood at 201 nM.

For `CC(C)(O)[C@H](F)CNC(=O)c1cnc(-n2ccc3cc(C#N)cnc32)cc1Nc1ccc(-n2cccn2)cc1` [Example 67], the IC50 in test [1] turned out to be 1.7 nM. Also, in test [2], the concentration giving a half-maximal response (EC50) turned out to be 102 nM.

`CC(C)(O)[C@H](F)CNC(=O)c1cnc(-n2ccc3cc(C#N)cnc32)cc1Nc1ccc(-n2cncn2)cc1` [Example 68]: in test [1], the IC50 was 2.1 nM. For the same compound, the EC50 in test [2] was found to be 30 nM.

A word on the IC50: it is the midpoint of a concentration-inhibition curve. The EC50 is the concentration needed to bring the measured effect to its halfway point.

Values taken from patent publication US9169252B2 (BRISTOL-MYERS SQUIBB COMPANY, priority 2014, dated 2015).
